Article PMC5913406 (British Journal of Pharmacology, 2018)

Columns and labels:
A1 receptor = details: 25°C; ref Guo et al., 2013; cited from earlier work
[1] = target: T1, human adenosine A1 receptor (Homo sapiens, UniProt P30542); experiment: Competition binding assay: displacement of [^3H]‐NECA on CHOhA1R cell membranes
T1 sequence (P30542 1-326): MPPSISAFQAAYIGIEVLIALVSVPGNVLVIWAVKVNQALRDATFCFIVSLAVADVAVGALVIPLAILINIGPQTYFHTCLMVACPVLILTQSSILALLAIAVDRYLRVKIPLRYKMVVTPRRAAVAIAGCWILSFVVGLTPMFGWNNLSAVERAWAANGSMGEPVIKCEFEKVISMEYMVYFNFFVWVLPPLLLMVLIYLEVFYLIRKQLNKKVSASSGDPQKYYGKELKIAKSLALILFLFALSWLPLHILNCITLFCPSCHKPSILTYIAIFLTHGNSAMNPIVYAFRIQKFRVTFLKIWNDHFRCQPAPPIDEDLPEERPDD

[2] = target: T1, human adenosine A1 receptor; experiment: Two‐state competition association assay with [^3H]‐NECA; assay type: binding

| Compound | association rate (A1 receptor) [M⁻¹ min⁻¹] | IC50 [1] [nM] | Kb ([2]; KB,2, KB,2 = k8/k7, R2 state, 30°C, DPCPX and LUF5962 values ambiguous) [nM] | kon ([2]; read-out: k5 (association rate constant of competitor at R1 state)) [M⁻¹ s⁻¹] | koff ([2]; read-out: k6 (dissociation rate constant of competitor at R1 state)) [s⁻¹] | k6 (dissociation rate constant of competitor at R1 state) ([2]; two‐state model, 30°C, mean ± SEM of five experiments) [min⁻¹] |
| --- | --- | --- | --- | --- | --- | --- |
| c1ccc(-c2nc(-c3ccccc3)c3nc(C4CCCC4)[nH]c3n2)cc1 [LUF5962, 8‐cyclopentyl‐2,6‐diphenyl‐9H‐purine] | 1.2e+08 | 74.1 | 15 | 167000 | 0.00383 | – |
| CCCn1c(=O)c2[nH]c(C3CCCC3)nc2n(CCC)c1=O [DPCPX, 1,3‐dipropyl‐8‐cyclopentylxanthine] | 2e+08 | – | – | – | – | 0.78 ± 1.42 |
